Tests used:
Assay in all cases: Screen Quest Fluo-8 No Wash Calcium Assay (Bz-ATP evoked Ca2+ influx, FLIPR)
Format in all cases: cell-based
P2X7 receptor [1] = target: T1, P2X7 receptor (Mus musculus, UniProt Q9Z1M0); details: mP2X7; HEK-293 cells stably transfected with P2X7 receptor, Bz-ATP at EC80, Fluo-8 NW; potency ranges A-D
T1 construct: mP2X7 (IC50; nM); other: mP2X7; HEK-293 cells stably transfected with P2X7 receptor, Bz-ATP at EC80, Fluo-8 NW; potency
T1 sequence (Q9Z1M0 1-595): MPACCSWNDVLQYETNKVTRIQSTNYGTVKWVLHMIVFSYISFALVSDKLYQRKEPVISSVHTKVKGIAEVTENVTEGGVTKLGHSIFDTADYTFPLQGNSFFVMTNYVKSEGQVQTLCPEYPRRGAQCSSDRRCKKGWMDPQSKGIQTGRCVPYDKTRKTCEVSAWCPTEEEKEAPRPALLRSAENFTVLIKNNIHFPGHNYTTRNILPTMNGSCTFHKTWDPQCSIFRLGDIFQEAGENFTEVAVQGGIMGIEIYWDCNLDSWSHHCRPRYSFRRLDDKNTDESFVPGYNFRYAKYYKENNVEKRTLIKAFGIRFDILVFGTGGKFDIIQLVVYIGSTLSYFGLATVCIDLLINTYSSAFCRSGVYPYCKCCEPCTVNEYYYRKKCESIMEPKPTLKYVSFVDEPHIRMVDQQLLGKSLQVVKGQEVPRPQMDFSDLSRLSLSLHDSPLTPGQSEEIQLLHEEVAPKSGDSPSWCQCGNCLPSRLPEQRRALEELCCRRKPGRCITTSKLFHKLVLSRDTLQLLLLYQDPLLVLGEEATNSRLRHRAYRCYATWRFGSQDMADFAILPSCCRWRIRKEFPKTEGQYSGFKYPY
How it was run: (§1)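 Compounds were added to Fluo-8-loaded P2X7-transfected HEK-293 cells 5 min before an EC80 Bz-ATP challenge, and Ca2+ influx was then recorded for 3 min. Buffer held 0.3 mM Ca2+ and no Mg2+. Inhibition was normalised to A438079, giving IC50 values.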

P2X7 receptor [2] = target: T2, P2X7 receptor (Rattus norvegicus, UniProt Q64663); details: rP2X7; HEK-293 cells stably transfected with P2X7 receptor, Bz-ATP at EC80, Fluo-8 NW; potency ranges A-D
T2 construct: rP2X7 (IC50; nM); other: rP2X7; HEK-293 cells stably transfected with P2X7 receptor, Bz-ATP at EC80, Fluo-8 NW; potency
T2 sequence (Q64663 1-595): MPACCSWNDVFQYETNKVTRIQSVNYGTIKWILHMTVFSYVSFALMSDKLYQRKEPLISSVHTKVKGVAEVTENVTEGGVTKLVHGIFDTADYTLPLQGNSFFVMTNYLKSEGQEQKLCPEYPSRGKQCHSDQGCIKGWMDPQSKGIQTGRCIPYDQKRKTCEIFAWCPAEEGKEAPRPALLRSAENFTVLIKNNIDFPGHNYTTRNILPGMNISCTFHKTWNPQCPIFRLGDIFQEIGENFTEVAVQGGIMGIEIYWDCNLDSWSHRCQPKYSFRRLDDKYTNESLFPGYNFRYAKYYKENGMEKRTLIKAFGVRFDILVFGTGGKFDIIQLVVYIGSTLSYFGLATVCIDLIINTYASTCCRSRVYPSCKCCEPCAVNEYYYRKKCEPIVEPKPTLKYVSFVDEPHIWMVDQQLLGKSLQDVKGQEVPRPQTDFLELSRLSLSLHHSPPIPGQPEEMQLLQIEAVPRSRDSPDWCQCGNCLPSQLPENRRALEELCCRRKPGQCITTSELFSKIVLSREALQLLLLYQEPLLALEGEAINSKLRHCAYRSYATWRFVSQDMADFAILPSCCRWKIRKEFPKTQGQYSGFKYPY
How it was run: as §1

P2X7 receptor [3] = target: T3, P2X7 receptor (Homo sapiens, UniProt Q99572); parameters: hP2X7 (IC50; nM); other: hP2X7; HEK-293 cells stably transfected with P2X7 receptor, Bz-ATP at EC80, Fluo-8 NW; potency; details: hP2X7; HEK-293 cells stably transfected with P2X7 receptor, Bz-ATP at EC80, Fluo-8 NW; potency ranges A-D
T3 sequence (Q99572 1-595): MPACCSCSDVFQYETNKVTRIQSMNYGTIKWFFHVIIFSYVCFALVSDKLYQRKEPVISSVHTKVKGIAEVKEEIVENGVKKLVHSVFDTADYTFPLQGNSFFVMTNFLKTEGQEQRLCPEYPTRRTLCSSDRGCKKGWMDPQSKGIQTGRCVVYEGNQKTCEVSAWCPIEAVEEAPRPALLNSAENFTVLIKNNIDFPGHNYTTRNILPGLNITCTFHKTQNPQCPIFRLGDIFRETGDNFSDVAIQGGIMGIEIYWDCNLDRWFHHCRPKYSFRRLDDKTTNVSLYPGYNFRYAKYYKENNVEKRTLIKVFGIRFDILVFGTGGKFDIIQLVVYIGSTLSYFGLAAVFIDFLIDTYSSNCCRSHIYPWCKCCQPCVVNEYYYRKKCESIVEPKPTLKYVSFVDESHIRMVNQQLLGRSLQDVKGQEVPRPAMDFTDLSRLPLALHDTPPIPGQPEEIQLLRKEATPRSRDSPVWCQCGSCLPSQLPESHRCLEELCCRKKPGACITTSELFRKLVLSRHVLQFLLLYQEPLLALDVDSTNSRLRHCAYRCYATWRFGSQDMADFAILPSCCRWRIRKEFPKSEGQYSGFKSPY
How it was run: as §1

SMILES | IC50 (P2X7 receptor [1]) | IC50 (P2X7 receptor [2]) | IC50 (P2X7 receptor [3])
O=c1onc(Cc2c(F)cccc2Cl)n1Cc1cncs1 [Example 33, 3-[(2-chloro-6-fluorophenyl)methyl]-4-(1,3-thiazol-5-ylmethyl)-4,5-dihydro-1,2,4-oxadiazol-5-one] | > 10000 nM | > 10000 nM | > 10000 nM
CCCn1c(Cc2c(F)cccc2Cl)noc1=O [Example 176, 3-[(2-chloro-6-fluorophenyl)methyl]-4-propyl-4,5-dihydro-1,2,4-oxadiazol-5-one] | > 10000 nM | > 10000 nM | > 10000 nM
O=c1onc(Cc2ccccn2)n1Cc1ccc(F)cc1 [Example 104, 4-[(4-fluorophenyl)methyl]-3-(pyridin-2-ylmethyl)-4,5-dihydro-1,2,4-oxadiazol-5-one] | > 10000 nM | > 10000 nM | > 10000 nM
O=c1onc(CC2CCC(F)(F)C2)n1Cc1c(F)cccc1Cl (stereo not drawn) [Example 205, 4-[(2-chloro-6-fluorophenyl)methyl]-3-[(3,3-difluorocyclopentyl)methyl]-4,5-dihydro-1,2,4-oxadiazol-5-one] | 200 to 1000 nM | < 200 nM | < 200 nM
O=c1onc(CC2CCC(F)(F)CC2)n1Cc1ccc(C(F)(F)F)o1 [Example 168, 3-[(4,4-difluorocyclohexyl)methyl]-4-{[5-(trifluoromethyl)furan-2-yl]methyl}-4,5-dihydro-1,2,4-oxadiazol-5-one] | 200 to 1000 nM | 200 to 1000 nM | 1000 to 10000 nM
O=c1onc(Cc2ccccc2F)n1Cc1ccc(F)cc1 [Example 75, 3-[(2-fluorophenyl)methyl]-4-[(4-fluorophenyl)methyl]-4,5-dihydro-1,2,4-oxadiazol-5-one] | 1000 to 10000 nM | 1000 to 10000 nM | 1000 to 10000 nM
COc1cccc(Cc2noc(=O)n2Cc2ccc(F)cc2)c1 [Example 109, 4-[(4-fluorophenyl)methyl]-3-[(3-methoxyphenyl)methyl]-4,5-dihydro-1,2,4-oxadiazol-5-one] | > 10000 nM | 1000 to 10000 nM | 1000 to 10000 nM
CC(c1ccccc1)n1c(CC2CCC(F)(F)CC2)noc1=O (stereo not drawn) [Example 188, 3-[(4,4-difluorocyclohexyl)methyl]-4-(1-phenylethyl)-4,5-dihydro-1,2,4-oxadiazol-5-one] | 1000 to 10000 nM | 1000 to 10000 nM | 1000 to 10000 nM
O=c1onc(Cc2ccccc2C(F)(F)F)n1CC1CCC(F)(F)CC1 [Example 157, 4-[(4,4-difluorocyclohexyl)methyl]-3-{[2-(trifluoromethyl)phenyl]methyl}-4,5-dihydro-1,2,4-oxadiazol-5-one] | 200 to 1000 nM | < 200 nM | < 200 nM
O=c1onc(CC2CCC(F)(F)CC2)n1Cc1cncs1 [Example 193, 3-[(4,4-difluorocyclohexyl)methyl]-4-[(1,3-thiazol-5-yl)methyl]-1,2,4-oxadiazol-5(4H)-one] | 1000 to 10000 nM | 200 to 1000 nM | 1000 to 10000 nM
CCn1c(Cc2c(F)cccc2Cl)noc1=O [Example 175, 3-[(2-chloro-6-fluorophenyl)methyl]-4-ethyl-4,5-dihydro-1,2,4-oxadiazol-5-one] | > 10000 nM | > 10000 nM | > 10000 nM
Cc1nc(Cn2c(CC3CCC(F)(F)CC3)noc2=O)no1 [Example 196, 3-[(4,4-difluorocyclohexyl)methyl]-4-[(5-methyl-1,2,4-oxadiazol-3-yl)methyl]-1,2,4-oxadiazol-5(4H)-one] | > 10000 nM | > 10000 nM | > 10000 nM
O=c1onc(Cc2c(F)cccc2Cl)n1Cc1cccc2ncccc12 [Example 30, 3-[(2-chloro-6-fluorophenyl)methyl]-4-(quinolin-5-ylmethyl)-4,5-dihydro-1,2,4-oxadiazol-5-one] | 1000 to 10000 nM | 1000 to 10000 nM | 1000 to 10000 nM
O=c1onc(Cc2c(F)cccc2Cl)n1CC1CC2C(C1)C2(F)F (stereo not drawn) [Example 173, 3-[(2-chloro-6-fluorophenyl)methyl]-4-({6,6-difluorobicyclo[3.1.0]-hexan-3-yl}methyl)-4,5-dihydro-1,2,4-oxadiazol-5-one] | 200 to 1000 nM | < 200 nM | < 200 nM
O=c1onc(Cc2ccccn2)n1CC1CCCCC1 [Example 110, 4-(cyclohexylmethyl)-3-(pyridin-2-ylmethyl)-4,5-dihydro-1,2,4-oxadiazol-5-one] | > 10000 nM | 1000 to 10000 nM | > 10000 nM
Cc1nc(C(F)(F)F)ccc1Cn1c(Cc2c(F)cccc2Cl)noc1=O [Example 64, 3-[(2-chloro-6-fluorophenyl)methyl]-4-{[2-methyl-6-(trifluoromethyl)pyridin-3-yl]methyl}-4,5-dihydro-1,2,4-oxadiazol-5-one] | > 10000 nM | > 10000 nM | 1000 to 10000 nM
O=c1onc(CC2CCCCC2)n1Cc1ccc(F)cc1 [Example 131, 3-(cyclohexylmethyl)-4-[(4-fluorophenyl)methyl]-4,5-dihydro-1,2,4-oxadiazol-5-one] | 1000 to 10000 nM | 1000 to 10000 nM | 1000 to 10000 nM
O=c1onc(CN2CCC(F)(F)CC2)n1Cc1c(F)cccc1Cl [Example 220, 4-[(2-chloro-6-fluorophenyl)methyl]-3-[(4,4-difluoropiperidin-1-yl)methyl]-4,5-dihydro-1,2,4-oxadiazol-5-one] | 200 to 1000 nM | < 200 nM | < 200 nM
CCC#CCn1c(Cc2c(F)cccc2Cl)noc1=O [Example 90, 3-[(2-chloro-6-fluorophenyl)methyl]-4-(pent-2-yn-1-yl)-4,5-dihydro-1,2,4-oxadiazol-5-one] | > 10000 nM | 1000 to 10000 nM | 1000 to 10000 nM
COCn1c(Cc2c(F)cccc2Cl)noc1=O [Example 100, 3-[(2-chloro-6-fluorophenyl)methyl]-4-(methoxymethyl)-4,5-dihydro-1,2,4-oxadiazol-5-one] | > 10000 nM | > 10000 nM | > 10000 nM
COc1cc(Cn2c(Cc3ccc(F)cc3)noc2=O)cc(OC)c1 [Example 4, 4-[(3,5-dimethoxyphenyl)methyl]-3-[(4-fluorophenyl)methyl]-4,5-dihydro-1,2,4-oxadiazol-5-one] | > 10000 nM | > 10000 nM | > 10000 nM
O=c1onc(CN2CCC(F)(F)CC2)n1CC1CCC(F)(F)CC1 [Example 223, 4-[(4,4-difluorocyclohexyl)methyl]-3-[(4,4-difluoropiperidin-1-yl)methyl]-4,5-dihydro-1,2,4-oxadiazol-5-one] | > 10000 nM | > 10000 nM | > 10000 nM

Reference: US11623919B2, “Heterocyclic P2X7 antagonists” (AXXAM S.P.A., priority 2017, dated 2023)
